In patent US9493411B2 (AbbVie Inc., priority 2013, dated 2016):
Where two headings read alike, the source gives them in different places.

What was measured:
[1] = target: T1, BRD4 (BDI_K57-E168) (Homo sapiens, UniProt O60885); assay: TR-FRET bromodomain binding assay, BRD4 first bromodomain; settings: His-tagged BD1, Alexa647-labeled probe 100 nM; Ki calculated from IC50
T1 construct: BD1: amino acids K57-E168; made in house
Outline: (§1)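 Probe displacement, TR-FRET: 8 nM His-BRD4 domain, 1 nM Eu-anti-His, Alexa647 BET-inhibitor probe 100 nM (BDI)/30 nM (BDII); 20 mM Na phosphate pH 6.0, 50 mM NaCl, 1 mM DTT; cpd 50 μM-0.85 nM, 3-fold; 1 h RT; Ex 340/[…]; IC50 → Ki.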

[2] = target: T2, BRD4 (BDII_E352-M457) (Homo sapiens, UniProt O60885); assay: TR-FRET bromodomain binding assay, BRD4 second bromodomain; settings: His-tagged BD2, Alexa647-labeled probe 30 nM; Ki calculated from IC50
T2 construct: made in house
Outline: as §1

[3] = system: breast cancer cell line MX-1; assay: MX-1 cell line proliferation assay; format: cell-based; settings: MX-1 cells, 3-day proliferation assay, Cell Titer Glo, read-out: Cellular proliferation: EC50
Procedure: The impact of compounds of the Examples on cancer cell proliferation was determined using the breast cancer cell line MX-1 (ATCC) in a 3-day proliferation assay and the data are reported in Table 1. MX-1 cells were maintained in RPMI 1640 medium (Sigma) supplemented with 10% FBS at 37° C. and an atmosphere of 5% CO2. For compound testing, MX-1 cells were plated in 96-well black bottom plates at a density of 5000 cells/well in 90 μL of culture media and incubated at 37° overnight to allow cell adhesion and spreading. Compound dilution series were prepared in DMSO via a 3-fold serial dilution from 3 mM to 0.1 μM. The DMSO dilution series were then diluted 1:100 in phosphate buffered saline, and 10 μL of the resulted solution were added to the appropriate wells of the MX-1 cell plate. The final compound concentrations in the wells were 3, 1, 0.3, 0.1, 0.03, 0.01, 0.003, 0.001, 0.0003 and 0.0001 μM.
Luminescence readings from the Cell Titer Glo assay were normalized to the DMSO treated cells and analyzed using the GraphPad Prism software with sigmoidal curve fitting to obtain EC50s. The minimum significant ratio (MSR) was determined to evaluate assay reproducibility (Eastwood et al., (2006) J Biomol Screen, 11: 253-261).

| Structure (SMILES) | Ki [1] | Ki [2] | EC50 ([3]; Homo sapiens, MX1, 72 h) | EC50 [3] |
| --- | --- | --- | --- | --- |
| Cc1[nH]c(-c2ccccc2NC2CCOCC2)cc1C(N)=O [Example 70, 2-methyl-5-[2-(tetrahydro-2H-pyran-4-ylamino)phenyl]-1H-pyrrole-3-carboxamide] | 434 nM | 4290 nM | > 3000 nM | – |
| COC/C=C/c1ccc(-c2cc(C(N)=O)c(C)[nH]2)cc1 [Example 107, 5-{4-[(1E)-3-methoxyprop-1-en-1-yl]phenyl}-2-methyl-1H-pyrrole-3-carboxamide] | 4020 nM | 1980 nM | 8600 nM | – |
| Cc1[nH]c(-c2ccccc2NS(=O)(=O)C2CCCC2)cc1C(N)=O [Example 87, 5-{2-[(cyclopentylsulfonyl)amino]phenyl}-2-methyl-1H-pyrrole-3-carboxamide] | 366 nM | 465 nM | > 3000 nM | – |
| Cc1[nH]c(-c2ccccc2-n2cnc3ccc(O)cc32)cc1C(N)=O [Example 145, 5-[2-(6-hydroxy-1H-benzimidazol-1-yl)phenyl]-2-methyl-1H-pyrrole-3-carboxamide] | 1190 nM | 3920 nM | > 10000 nM | – |
| Cc1[nH]c(-c2ccccc2NCC2CCCO2)cc1C(N)=O (stereo not shown) [Example 13, 2-methyl-5-{2-[(tetrahydrofuran-2-ylmethyl)amino]phenyl}-1H-pyrrole-3-carboxamide] | 774 nM | 4540 nM | 3300 nM | – |
| Cc1[nH]c(-c2cc(CCO)ccc2OCc2ccccc2)cc1C(N)=O [Example 167, 5-[2-(benzyloxy)-5-(2-hydroxyethyl)phenyl]-2-methyl-1H-pyrrole-3-carboxamide] | 627 nM | 2250 nM | > 3000 nM | – |
| Cc1[nH]c(-c2ccccc2Oc2ccccc2F)cc1C(N)=O [Example 117, 5-[2-(2-fluorophenoxy)phenyl]-2-methyl-1H-pyrrole-3-carboxamide] | 391 nM | 725 nM | 1350 nM | – |
| Cc1[nH]c(-c2ccccc2Oc2ccc3cc[nH]c3c2)cc1C(N)=O [Example 118, 5-[2-(1H-indol-6-yloxy)phenyl]-2-methyl-1H-pyrrole-3-carboxamide] | 529 nM | 1730 nM | 1320 nM | – |
| Cc1[nH]c(-c2ccccc2NCc2cccs2)cc1C(N)=O [Example 38, 2-methyl-5-{2-[(thiophen-2-ylmethyl)amino]phenyl}-1H-pyrrole-3-carboxamide] | 622 nM | 1140 nM | 3800 nM | – |
| Cc1[nH]c(-c2ccccc2N(Cc2ccc(OCCCN(C)C)cc2)CC2CCCC2)cc1C(N)=O [Example 57, 5-{2-[(cyclopentylmethyl){4-[3-(dimethylamino)propoxy]benzyl}amino]phenyl}-2-methyl-1H-pyrrole-3-carboxamide] | 392 nM | 1900 nM | > 3000 nM | – |
| Cc1[nH]c(-c2ccccc2NCc2ccccc2)cc1C(N)=O [Example 12, 5-[2-(benzylamino)phenyl]-2-methyl-1H-pyrrole-3-carboxamide] | 935 nM | 3900 nM | 3440 nM | – |
| Cc1[nH]c(-c2ccccc2NC2CCc3ccccc32)cc1C(N)=O (stereo not shown) [Example 67, 5-[2-(2,3-dihydro-1H-inden-1-ylamino)phenyl]-2-methyl-1H-pyrrole-3-carboxamide] | 452 nM | 810 nM | > 3000 nM | – |
| Cc1[nH]c(-c2ccccc2NCc2ccc3[nH]ccc3c2)cc1C(N)=O [Example 56, 5-{2-[(1H-indol-5-ylmethyl)amino]phenyl}-2-methyl-1H-pyrrole-3-carboxamide] | 1630 nM | 2690 nM | > 10000 nM | – |
| Cc1[nH]c(-c2ccccc2Oc2ccc3[nH]ccc3c2)cc1C(N)=O [Example 130, 5-[2-(1H-indol-5-yloxy)phenyl]-2-methyl-1H-pyrrole-3-carboxamide] | 471 nM | 1220 nM | 1770 nM | – |
| Cc1[nH]c(-c2ccccc2NC[C@H]2CC[C@@H](NC(=O)OC(C)(C)C)CC2)cc1C(N)=O [Example 45, tert-butyl [cis-4-({[2-(4-carbamoyl-5-methyl-1H-pyrrol-2-yl)phenyl]amino}methyl)cyclohexyl]carbamate] | 434 nM | 9290 nM | 5440 nM | – |
| Cc1[nH]c(-c2ccc(-c3ccc(CN4CCN(C)CC4)cc3)cc2)cc1C(N)=O [Example 97, 2-methyl-5-{4′-[(4-methylpiperazin-1-yl)methyl]biphenyl-4-yl}-1H-pyrrole-3-carboxamide] | 1410 nM | 1870 nM | 15300 nM | – |
| CCOC(=O)CCN(Cc1ccccc1)C(=O)c1cc(-c2ccc(-c3c(C)noc3C)cc2)[nH]c1C [Example 96, ethyl N-benzyl-N-({5-[4-(3,5-dimethyl-1,2-oxazol-4-yl)phenyl]-2-methyl-1H-pyrrol-3-yl}carbonyl)-beta-alaninate] | 3190 nM | 21500 nM | – | – |
| Cc1[nH]c(-c2ccccc2NCc2ccc(N(C)C)cc2)cc1C(N)=O [Example 37, 5-(2-{[4-(dimethylamino)benzyl]amino}phenyl)-2-methyl-1H-pyrrole-3-carboxamide] | 4680 nM | 3580 nM | – | – |

Further compounds by falling Ki [1], results first:

| Ki [1] | Ki [2] | EC50 ([3]; Homo sapiens, MX1, 72 h) | EC50 [3] | Structure (SMILES) |
| --- | --- | --- | --- | --- |
| 357 nM | 775 nM | 2130 nM | – | Cc1[nH]c(-c2ccccc2Oc2cccc(Cl)c2)cc1C(N)=O [Example 142, 5-[2-(3-chlorophenoxy)phenyl]-2-methyl-1H-pyrrole-3-carboxamide] |
| 352 nM | 6900 nM | 2460 nM | – | Cc1[nH]c(-c2ccccc2NC2CCOC2)cc1C(N)=O (stereo not shown) [Example 63, 2-methyl-5-[2-(tetrahydrofuran-3-ylamino)phenyl]-1H-pyrrole-3-carboxamide] |
| 322 nM | 1790 nM | > 10000 nM | – | Cc1[nH]c(-c2ccccc2NCCC2CCN(C(=O)OC(C)(C)C)CC2)cc1C(N)=O [Example 44, tert-butyl 4-(2-{[2-(4-carbamoyl-5-methyl-1H-pyrrol-2-yl)phenyl]amino}ethyl)piperidine-1-carboxylate] |
| 310 nM | 576 nM | 1830 nM | – | COC(=O)CCc1ccccc1Oc1ccccc1-c1cc(C(N)=O)c(C)[nH]1 [Example 133, methyl 3-{2-[2-(4-carbamoyl-5-methyl-1H-pyrrol-2-yl)phenoxy]phenyl}propanoate] |
| 248 nM | 1870 nM | 1500 nM | – | Cc1[nH]c(-c2ccccc2NCC2CCOC2)cc1C(N)=O (stereo not shown) [Example 17, 2-methyl-5-{2-[(tetrahydrofuran-3-ylmethyl)amino]phenyl}-1H-pyrrole-3-carboxamide] |
| 224 nM | 6220 nM | 9580 nM | – | Cc1[nH]c(-c2ccccc2NC[C@H]2CC[C@@H](N)CC2)cc1C(N)=O [Example 48, 5-(2-{[(cis-4-aminocyclohexyl)methyl]amino}phenyl)-2-methyl-1H-pyrrole-3-carboxamide] |
| 218 nM | 1020 nM | 4880 nM | – | COc1ccc(Oc2ccccc2-c2cc(C(N)=O)c(C)[nH]2)cc1 [Example 137, 5-[2-(4-methoxyphenoxy)phenyl]-2-methyl-1H-pyrrole-3-carboxamide] |
| 212 nM | 5580 nM | > 10000 nM | – | Cc1[nH]c(-c2ccccc2NCC2CCN(C(=O)OC(C)(C)C)C2)cc1C(N)=O (stereo not shown) [Example 40, tert-butyl 3-({[2-(4-carbamoyl-5-methyl-1H-pyrrol-2-yl)phenyl]amino}methyl)pyrrolidine-1-carboxylate] |
| 209 nM | 722 nM | 465 nM | – | Cc1[nH]c(-c2ccccc2NCC2CCCC2)cc1C(N)=O [Example 14, 5-{2-[(cyclopentylmethyl)amino]phenyl}-2-methyl-1H-pyrrole-3-carboxamide] |
| 183 nM | 2340 nM | 2850 nM | – | Cc1[nH]c(-c2ccccc2NCC2CCOC2)cc1C(N)=O (single isomer, unassigned) [Example 18] |
| 131 nM | 1830 nM | – | 2360 nM | Cc1[nH]c(-c2ccccc2NCC2CCOC2)cc1C(N)=O (single isomer, unassigned) [Example 19] |
| 83.4 nM | 1140 nM | 1300 nM | – | Cc1[nH]c(-c2ccccc2Oc2cccnc2)cc1C(N)=O [Example 126, 2-methyl-5-[2-(pyridin-3-yloxy)phenyl]-1H-pyrrole-3-carboxamide] |
| 37.6 nM | 225 nM | 433 nM | – | Cc1[nH]c(-c2ccccc2NC2CCCCC2F)cc1C(N)=O (stereo not shown) [Example 75, 5-{2-[(2-fluorocyclohexyl)amino]phenyl}-2-methyl-1H-pyrrole-3-carboxamide] |
